Reference: US20070117770A1, “Human ribosomal DNA (rDNA) and ribosomal RNA (rRNA) nucleic acids and uses thereof” (Cylene Pharmaceuticals, Inc., priority 2005, published 2007)

Experiments:
Assay in all cases: Protein kinase inhibition assay
Type in all cases: biochemical
[1] = biological target: PKCι(h) (Homo sapiens, UniProt P41743); details: read-out: percent residual activity of PKCι(h)
Method: (§1) Certain compounds were tested for activity in protein kinase inhibition assays. All substrates were dissolved and diluted to working stocks in de-ionized water, apart from histone H1 (10× working stock in 20 mM MOPS pH 7.0), PDKtide (10× working stock in 50 mM Tris pH 7.0) ATF2 (which is typically stored at a 20× working stock in 50 mM Tris pH 7.5, 150 mM NaCl, 0.1 mM EGTA, 0.03% Brij-35, 50% glycerol, 1 mM benzamidine, 0.2 mM PMSF and 0.1% R-mercaptoethanol), KKLNRTLSFAEPG (SEQ ID NO:203) and RRRLSFAEPG (SEQ ID NO:204) (50 mM HEPES pH 7.4) and GGEEEEYFELVKKKK (SEQ ID NO:205) (20 mM MOPS pH 7.0). All kinases were pre-diluted to a 10× working concentration prior to addition into the assay. The composition of the dilution buffer for each kinase is detailed below.
In a final reaction volume of 25 μl, PKCι (h) (5-10 mU) is incubated with 20 mM HEPES pH 7.4, 0.03%. Triton X-100, 50 μM ERMRPRKRQGSVRRRV (SEQ ID NO:224), 10 mM MgAcetate and [gamma-33P-ATP] (specific activity approx. 500 cpm/pmol, concentration as required). The reaction is initiated by the addition of the MgATP mix. After incubation for 40 minutes at room temperature, the reaction is stopped by the addition of 5 μl of a 3% phosphoric acid solution. […]

[2] = biological target: Arg(h) (Homo sapiens, UniProt P42684); details: read-out: percent residual activity of Arg(h)
Method: as §1
(§2) In a final reaction volume of 25 μl, Arg (h) (5-10 mU) is incubated with 8 mM MOPS pH 7.0, 0.2 mM EDTA, 50 μM EAIYAAPFAKKK (SEQ ID NO:206), 10 mM MgAcetate and [gamma-33P-ATP] (specific activity approx. 500 cpm/pmol, concentration as required). The reaction is initiated by the addition of the MgATP mix. After incubation for 40 minutes at room temperature, the reaction is stopped by the addition of 5 μl of a 3% phosphoric acid solution. 10 pi of the reaction is then spotted onto a P30 filtermat and washed three times for 5 minutes in 75 mM phosphoric acid and once in methanol prior to drying and scintillation counting.

[3] = biological target: TrkB(h) (Homo sapiens, UniProt Q16620); details: read-out: percent residual activity of TrkB(h)
Method: as §1
as §2, with “TrkB” for “Arg”, “0.1 mg/ml poly(Glu, Tyr) 4:1,” for “50 μM EAIYAAPFAKKK (SEQ ID NO:206),”, “μl” for “pi”, “Filtermat A” for “P30 filtermat”

[4] = biological target: Rsk1(h) (Homo sapiens, UniProt Q15418); details: read-out: percent residual activity of Rsk1(h)
Method: as §1
as §2, with “μl, Rsk1” for “μl, Arg”, “EDTA, 30” for “EDTA, 50”, “μM KKKNRTLSVA” for “μM EAIYAAPFAKKK”, “ID NO:212),” for “ID NO:206),”, “10 μl” for “10 pi”

[5] = biological target: JNK2α2(h) (Homo sapiens, UniProt P45984); details: read-out: percent residual activity of JNK2α2(h)
Method: as §1
as §2, with “JNK2α2” for “Arg”, “50” for “8”, “Tris” for “MOPS”, “7.5, […], 0.1% R-mercaptoethanol, 3” for “7.0, 0.2 mM EDTA, 50”, “ATF2,” for “EAIYAAPFAKKK (SEQ ID NO:206),”, “μl” for “pi”

[6] = biological target: PKBγ(h) (Homo sapiens, UniProt Q9Y243); details: read-out: percent residual activity of PKBγ(h)
Method: as §1
as §2, with “μl, PKBγ” for “μl, Arg”, “EDTA, 30” for “EDTA, 50”, “μM GRPRTSSFAEGKK” for “μM EAIYAAPFAKKK”, “ID NO:232),” for “ID NO:206),”, “10 μl” for “10 pi”

PKBγ(h), sequence (Q9Y243 whole entry): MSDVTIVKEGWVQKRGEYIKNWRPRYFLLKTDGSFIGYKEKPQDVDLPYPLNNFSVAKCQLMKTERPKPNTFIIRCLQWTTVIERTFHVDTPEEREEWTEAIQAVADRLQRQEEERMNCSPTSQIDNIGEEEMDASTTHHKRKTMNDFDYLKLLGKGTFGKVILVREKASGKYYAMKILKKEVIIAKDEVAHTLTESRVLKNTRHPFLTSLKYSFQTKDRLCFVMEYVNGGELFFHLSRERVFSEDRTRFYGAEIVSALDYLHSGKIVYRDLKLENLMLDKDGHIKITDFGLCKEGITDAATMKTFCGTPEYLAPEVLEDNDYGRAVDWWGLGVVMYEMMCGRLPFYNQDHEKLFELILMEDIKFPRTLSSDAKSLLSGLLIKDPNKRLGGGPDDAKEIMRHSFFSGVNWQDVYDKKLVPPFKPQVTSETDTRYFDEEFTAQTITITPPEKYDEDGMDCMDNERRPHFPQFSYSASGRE
JNK2α2(h), sequence (P45984 whole entry): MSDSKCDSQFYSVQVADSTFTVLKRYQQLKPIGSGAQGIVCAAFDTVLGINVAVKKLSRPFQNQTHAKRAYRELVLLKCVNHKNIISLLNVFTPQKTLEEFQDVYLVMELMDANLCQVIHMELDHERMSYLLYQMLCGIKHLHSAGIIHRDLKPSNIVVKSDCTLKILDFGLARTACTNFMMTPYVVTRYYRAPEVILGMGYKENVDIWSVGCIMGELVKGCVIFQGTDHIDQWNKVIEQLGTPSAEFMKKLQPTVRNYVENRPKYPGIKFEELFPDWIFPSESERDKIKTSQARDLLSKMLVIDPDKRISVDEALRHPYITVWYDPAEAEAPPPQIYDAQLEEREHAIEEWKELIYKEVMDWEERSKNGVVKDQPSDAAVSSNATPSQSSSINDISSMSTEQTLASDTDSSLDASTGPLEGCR
PKCι(h), sequence (P41743 whole entry): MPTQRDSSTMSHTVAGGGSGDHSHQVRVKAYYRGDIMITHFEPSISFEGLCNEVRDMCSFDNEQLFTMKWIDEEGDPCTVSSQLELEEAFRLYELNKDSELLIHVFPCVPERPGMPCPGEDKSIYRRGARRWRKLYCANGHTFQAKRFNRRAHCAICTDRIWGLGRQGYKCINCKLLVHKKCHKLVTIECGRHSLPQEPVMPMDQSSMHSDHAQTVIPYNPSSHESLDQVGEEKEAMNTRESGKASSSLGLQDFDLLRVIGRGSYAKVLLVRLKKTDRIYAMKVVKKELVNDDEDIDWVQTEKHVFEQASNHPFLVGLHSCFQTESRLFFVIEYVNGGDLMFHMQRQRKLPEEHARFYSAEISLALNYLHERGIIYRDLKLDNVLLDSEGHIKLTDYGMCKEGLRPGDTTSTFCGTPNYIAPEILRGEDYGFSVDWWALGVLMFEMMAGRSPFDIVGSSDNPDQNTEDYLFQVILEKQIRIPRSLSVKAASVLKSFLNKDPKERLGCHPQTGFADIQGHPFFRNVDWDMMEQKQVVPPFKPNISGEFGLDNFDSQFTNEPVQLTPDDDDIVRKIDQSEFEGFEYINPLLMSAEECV
Rsk1(h), sequence (Q15418 whole entry): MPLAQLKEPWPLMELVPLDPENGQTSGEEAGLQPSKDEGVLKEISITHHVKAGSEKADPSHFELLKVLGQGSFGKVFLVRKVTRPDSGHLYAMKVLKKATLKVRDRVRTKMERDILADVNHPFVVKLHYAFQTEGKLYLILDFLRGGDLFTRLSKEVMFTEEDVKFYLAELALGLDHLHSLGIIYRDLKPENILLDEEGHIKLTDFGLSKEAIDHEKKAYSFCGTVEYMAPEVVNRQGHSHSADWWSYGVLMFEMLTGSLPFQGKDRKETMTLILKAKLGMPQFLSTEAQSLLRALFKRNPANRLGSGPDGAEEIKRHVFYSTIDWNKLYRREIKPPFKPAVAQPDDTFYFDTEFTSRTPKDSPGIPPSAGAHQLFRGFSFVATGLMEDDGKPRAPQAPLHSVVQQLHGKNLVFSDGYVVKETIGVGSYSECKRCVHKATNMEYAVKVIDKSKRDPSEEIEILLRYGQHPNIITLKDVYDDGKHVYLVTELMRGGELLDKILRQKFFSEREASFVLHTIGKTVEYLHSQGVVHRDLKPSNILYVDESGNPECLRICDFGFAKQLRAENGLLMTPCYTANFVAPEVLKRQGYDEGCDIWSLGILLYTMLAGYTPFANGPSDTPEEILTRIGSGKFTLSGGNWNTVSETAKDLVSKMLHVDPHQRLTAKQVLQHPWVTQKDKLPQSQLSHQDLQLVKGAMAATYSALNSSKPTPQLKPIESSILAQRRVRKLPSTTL
Arg(h), sequence (P42684 whole entry): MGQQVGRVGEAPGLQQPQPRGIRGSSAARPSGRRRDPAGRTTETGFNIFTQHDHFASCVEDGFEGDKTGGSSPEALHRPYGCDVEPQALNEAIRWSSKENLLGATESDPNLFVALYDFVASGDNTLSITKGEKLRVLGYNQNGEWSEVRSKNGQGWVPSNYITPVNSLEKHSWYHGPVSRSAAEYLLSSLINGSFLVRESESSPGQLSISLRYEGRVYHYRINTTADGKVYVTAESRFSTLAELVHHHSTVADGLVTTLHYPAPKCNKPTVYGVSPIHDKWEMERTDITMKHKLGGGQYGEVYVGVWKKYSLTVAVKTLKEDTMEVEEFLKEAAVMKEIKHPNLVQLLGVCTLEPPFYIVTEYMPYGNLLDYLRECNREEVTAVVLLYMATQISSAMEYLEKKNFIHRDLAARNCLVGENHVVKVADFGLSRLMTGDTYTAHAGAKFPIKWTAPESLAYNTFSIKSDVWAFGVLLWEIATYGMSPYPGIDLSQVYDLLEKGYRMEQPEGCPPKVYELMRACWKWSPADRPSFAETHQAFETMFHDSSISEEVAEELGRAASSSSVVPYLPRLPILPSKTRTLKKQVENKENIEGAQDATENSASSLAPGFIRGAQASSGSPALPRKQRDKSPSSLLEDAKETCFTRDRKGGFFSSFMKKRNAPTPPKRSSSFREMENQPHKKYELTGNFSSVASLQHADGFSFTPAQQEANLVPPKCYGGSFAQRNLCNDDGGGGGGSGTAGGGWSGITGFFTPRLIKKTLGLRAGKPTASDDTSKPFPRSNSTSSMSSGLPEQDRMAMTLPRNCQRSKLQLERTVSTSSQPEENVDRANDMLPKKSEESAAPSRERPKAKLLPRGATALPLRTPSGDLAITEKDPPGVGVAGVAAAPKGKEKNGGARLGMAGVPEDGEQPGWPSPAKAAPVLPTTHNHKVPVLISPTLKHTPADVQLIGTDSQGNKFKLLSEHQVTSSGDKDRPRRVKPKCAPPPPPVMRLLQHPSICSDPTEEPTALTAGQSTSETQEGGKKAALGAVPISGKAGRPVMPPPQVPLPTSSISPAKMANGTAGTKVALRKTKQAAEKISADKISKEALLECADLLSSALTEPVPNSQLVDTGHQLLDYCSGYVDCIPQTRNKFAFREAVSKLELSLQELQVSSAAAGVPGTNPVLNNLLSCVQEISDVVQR
TrkB(h), sequence (Q16620 32-822): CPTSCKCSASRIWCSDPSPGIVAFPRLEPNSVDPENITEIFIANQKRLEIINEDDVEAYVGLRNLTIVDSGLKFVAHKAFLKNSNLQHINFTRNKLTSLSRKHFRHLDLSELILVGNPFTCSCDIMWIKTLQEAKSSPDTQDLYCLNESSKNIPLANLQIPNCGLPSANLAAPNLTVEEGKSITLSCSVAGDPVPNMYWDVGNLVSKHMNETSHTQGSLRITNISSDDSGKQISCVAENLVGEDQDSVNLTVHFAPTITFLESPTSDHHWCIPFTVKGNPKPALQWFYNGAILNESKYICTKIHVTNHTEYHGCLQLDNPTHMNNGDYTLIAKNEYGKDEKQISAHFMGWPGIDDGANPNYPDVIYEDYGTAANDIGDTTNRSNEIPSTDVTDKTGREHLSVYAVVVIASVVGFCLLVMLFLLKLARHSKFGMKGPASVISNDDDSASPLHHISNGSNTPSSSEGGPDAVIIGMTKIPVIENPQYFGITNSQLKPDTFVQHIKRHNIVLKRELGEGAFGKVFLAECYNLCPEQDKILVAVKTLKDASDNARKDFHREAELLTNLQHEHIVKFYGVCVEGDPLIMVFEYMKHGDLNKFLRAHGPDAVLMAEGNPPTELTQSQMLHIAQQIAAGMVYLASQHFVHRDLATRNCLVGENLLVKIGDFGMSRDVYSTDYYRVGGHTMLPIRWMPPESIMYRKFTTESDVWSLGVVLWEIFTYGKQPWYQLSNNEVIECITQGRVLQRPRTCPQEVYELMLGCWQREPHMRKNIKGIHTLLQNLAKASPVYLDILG

## CN1CCCC1CCNC(=O)c1cn2c3c(c(N4CCC(c5cnccn5)C4)c(F)cc3c1=O)Oc1cc3ccccc3cc1-2 (stereo not drawn) [Compound A-1]
[1]
  remaining activity at 2.5 µM: 72%
[2]
  remaining activity at 2.5 µM: 46%
[3]
  remaining activity at 2.5 µM: 44%
[4]
  remaining activity at 2.5 µM: 85%
[5]
  remaining activity at 2.5 µM: 101%
[6]
  remaining activity at 2.5 µM: 64%

## CC(=O)N1CCN(c2ccc3c(=O)c(C(=O)NCCN4CCCC4)c4n(C)c5ccccc5n4c3n2)CC1 [Compound B-1]
[1]
  remaining activity at 2.5 µM: 95%
[2]
  remaining activity at 2.5 µM: 94%
[3]
  remaining activity at 2.5 µM: 118%
[4]
  remaining activity at 2.5 µM: 103%
[5]
  remaining activity at 2.5 µM: 106%
[6]
  remaining activity at 2.5 µM: 95%
